These results are taken from publication PMC4503722, “Novel Phenotypic Outcomes Identified for a Public Collection of Approved Drugs from a Publicly Accessible Panel of Assays” (PLoS ONE, 2015).

Experiment [1] has as its system ECFC/ADSC co-culture cell nuclei number.
For another experiment, the system named is RKO. Nature of the experiment: cells. The class given is cell-based. The note with it: for Basal_Viability ATP RKO IC50/EC50: assay number 29.
The test system of the next experiment is HT-29. Nature of the experiment: cells. The class given is cell-based. The note with it: for Basal_Viability ATP HT-29 IC50/EC50: assay number 28.
A further experiment has as its system HCT116. Description: cells. The class given is cell-based. Particulars: for Basal_Viability ATP HCT116 IC50/EC50: assay number 25.
A further experiment concerns Colo320. Nature of the experiment: cells. The class given is cell-based. Particulars: for Basal_Viability ATP Colo 320 IC50/EC50: assay number 27.
For experiment [2], the system named is HCT116 cells treated with a GSK3β inhibitor. Description: cells. Particulars: for GSK3b inh pretreated_Viability ATP HCT116 IC50/EC50: assay number 26, GSK3b inhibitor pretreated. The class given is cell-based.
Another experiment concerns DLD-1. Nature of the experiment: cells. The class given is cell-based. Particulars: for Basal_Viability ATP DLD-1 IC50/EC50: assay number 23.
Experiment [3] deals with endothelial tube formation in co-cultures of ECFCs and ADSCs treated with VEGF. Description: cells. The class given is cell-based, human.
For a further experiment, the system named is SNU-C1. Nature of the experiment: cells. The class given is cell-based. The note with it: for Basal_Viability ATP SNU-C1 IC50/EC50: assay number 30.
For the next experiment, the system named is SW480. Description: cells. The class given is cell-based. The note with it: for Basal_Viability ATP SW480 IC50/EC50: assay number 24.

A value given as a limit tells only on which side of the number the result lay.

What is called IC50 is the concentration that inhibits the measured activity by half. Turning to `CN(C)c1ccc(C(=C2C=CC(=[N+](C)C)C=C2)c2ccccc2)cc1` [NCGC00013058-02], the half-inhibitory concentration (IC50) in experiment [1] (read-out: VEGF_ADSC\ECFC Angio Hoechst NucArea summarized IC50) turned out to be 1.72 µM; with RKO (read-out: Basal_Viability ATP RKO summarized IC50), 0.118 µM; in the experiment on HT-29 (read-out: Basal_Viability ATP HT-29 summarized IC50) it was 0.00982 µM; with HCT116 (read-out: Basal_Viability ATP HCT116 summarized IC50), 0.0179 µM; with Colo320 (read-out: Basal_Viability ATP Colo 320 summarized IC50), 0.161 µM; in experiment [2] (read-out: GSK3b inh pretreated_Viability ATP HCT116 summarized IC50) it was 0.00983 µM. The IC50 was 0.0218 µM with DLD-1 (read-out: Basal_Viability ATP DLD-1 summarized IC50), 0.0605 µM in experiment [3] (read-out: VEGF_ADSC\ECFC Angio CD31 TubeArea summarized IC50), 0.0354 µM in the experiment with SNU-C1 (read-out: Basal_Viability ATP SNU-C1 summarized IC50) and 0.00922 µM in the experiment with SW480 (read-out: Basal_Viability ATP SW480 summarized IC50).

In the case of `Cc1cccc(Nc2cc(Cl)nc(SCC(=O)O)n2)c1C` [NCGC00014702-15], the “IC50/EC50, VEGF_ADSC\ECFC Angio Hoechst NucArea (assay number 3)” value in experiment [1] is reported as above 10 µM. Moreover, the “IC50/EC50, Basal_Viability ATP RKO (assay number 29)” value with RKO (basal) is listed as above 20 µM. In the experiment with HT-29 (basal), the “IC50/EC50, Basal_Viability ATP HT-29 (assay number 28)” value is listed as above 20 µM. Also, the “IC50/EC50, Basal_Viability ATP HCT116 (assay number 25)” value in the experiment on HCT116 (basal) is above 20 µM. In addition, the “IC50/EC50, Basal_Viability ATP Colo 320 (assay number 27)” value with Colo320 (basal) is above 20 µM. In addition, the “IC50/EC50, GSK3b inh pretreated_Viability ATP HCT116 (assay number 26)” value in [2] (GSK3b inh pretreated) was above 20 µM. The “IC50/EC50, Basal_Viability ATP DLD-1 (assay number 23)” value with DLD-1 (basal) is given as above 20 µM. The “IC50/EC50, VEGF_ADSC\ECFC Angio CD31 TubeArea (assay number 2)” value in [3] was above 10 µM. In addition, the “IC50/EC50, Basal_Viability ATP SNU-C1 (assay number 30)” value with SNU-C1 (basal) is given as above 20 µM. In addition, in the experiment with SW480 (basal), the “IC50/EC50, Basal_Viability ATP SW480 (assay number 24)” value is reported as above 20 µM.

`CCc1cccc(N(C)C(N)=Nc2cccc3ccccc23)c1.Cl` [NCGC00015236-04]: the “VEGF_ADSC\ECFC Angio Hoechst NucArea IC50/EC50” value in experiment [1] was above 10 µM. For the same compound, the “Basal_Viability ATP RKO IC50/EC50” value with RKO (basal) was above 20 µM. For the same compound, in the experiment with HT-29 (basal), the “Basal_Viability ATP HT-29 IC50/EC50” value was above 20 µM. Further, the “Basal_Viability ATP Colo 320 IC50/EC50” value in the experiment with Colo320 (basal) was above 20 µM. For the same compound, the “GSK3b inh pretreated_Viability ATP HCT116 IC50/EC50” value in [2] is above 20 µM. In addition, the “Basal_Viability ATP DLD-1 IC50/EC50” value in the experiment on DLD-1 (basal) is recorded as above 20 µM. Moreover, the “VEGF_ADSC\ECFC Angio CD31 TubeArea IC50/EC50” value in experiment [3] is above 10 µM. Besides, the “Basal_Viability ATP SNU-C1 IC50/EC50” value in the experiment on SNU-C1 (basal) was above 20 µM. For the same compound, in the experiment with SW480 (basal), the “Basal_Viability ATP SW480 IC50/EC50” value is given as above 20 µM.

As to `CN1CCN(C2Cc3ccccc3Sc3ccc(Cl)cc32)CC1.O=C(O)/C=C\C(=O)O` (centres unmarked) [NCGC00015759-05], the “VEGF_ADSC\ECFC Angio Hoechst NucArea IC50/EC50” value in [1] is recorded as above 10 µM. Further, the “Basal_Viability ATP RKO IC50/EC50” value in the experiment with RKO (basal) was above 20 µM. Besides, in the experiment on HT-29 (basal), the “Basal_Viability ATP HT-29 IC50/EC50” value turned out to be 8.001 µM. Further, the “Basal_Viability ATP HCT116 IC50/EC50” value in the experiment with HCT116 (basal) amounted to 9.1662 µM. Moreover, the “Basal_Viability ATP Colo 320 IC50/EC50” value in the experiment with Colo320 (basal) is above 6.6667 µM. For the same compound, in experiment [2], the “GSK3b inh pretreated_Viability ATP HCT116 IC50/EC50” value is 8.3951 µM. For the same compound, in the experiment with DLD-1 (basal), the “Basal_Viability ATP DLD-1 IC50/EC50” value was above 20 µM. Besides, the “VEGF_ADSC\ECFC Angio CD31 TubeArea IC50/EC50” value in experiment [3] is listed as 5.2302 µM. In addition, in the experiment on SNU-C1 (basal), the “Basal_Viability ATP SNU-C1 IC50/EC50” value is reported as 7.8734 µM. Also, the “Basal_Viability ATP SW480 IC50/EC50” value in the experiment with SW480 (basal) is on record as 6.3146 µM.

`CCCn1cnc2c1c(=O)n(CCCCC(C)=O)c(=O)n2C` [NCGC00015861-09]: the “VEGF_ADSC\ECFC Angio Hoechst NucArea IC50/EC50” value in [1] is listed as above 10 µM. The “Basal_Viability ATP RKO IC50/EC50” value in the experiment on RKO (basal) is listed as above 20 µM. For the same compound, the “Basal_Viability ATP HT-29 IC50/EC50” value in the experiment on HT-29 (basal) was above 20 µM. For the same compound, the “Basal_Viability ATP HCT116 IC50/EC50” value with HCT116 (basal) is reported as above 20 µM. In the experiment on Colo320 (basal), the “Basal_Viability ATP Colo 320 IC50/EC50” value was above 20 µM. In addition, the “GSK3b inh pretreated_Viability ATP HCT116 IC50/EC50” value in experiment [2] was above 20 µM. Moreover, the “Basal_Viability ATP DLD-1 IC50/EC50” value with DLD-1 (basal) is above 20 µM. The “VEGF_ADSC\ECFC Angio CD31 TubeArea IC50/EC50” value in experiment [3] is above 10 µM. The “Basal_Viability ATP SNU-C1 IC50/EC50” value in the experiment on SNU-C1 (basal) is given as above 20 µM. Moreover, in the experiment on SW480 (basal), the “Basal_Viability ATP SW480 IC50/EC50” value is above 20 µM.

As to `O=C(CCCN1CCC(O)(c2cccc(C(F)(F)F)c2)CC1)c1ccc(F)cc1` [NCGC00015983-04], the “VEGF_ADSC\ECFC Angio Hoechst NucArea IC50/EC50” value in experiment [1] is given as above 10 µM. For the same compound, in the experiment on RKO (basal), the “Basal_Viability ATP RKO IC50/EC50” value is on record as above 20 µM. In addition, the “Basal_Viability ATP HT-29 IC50/EC50” value with HT-29 (basal) is on record as above 20 µM. For the same compound, the “Basal_Viability ATP HCT116 IC50/EC50” value with HCT116 (basal) was above 20 µM. Further, the “Basal_Viability ATP Colo 320 IC50/EC50” value with Colo320 (basal) was above 20 µM. Also, the “GSK3b inh pretreated_Viability ATP HCT116 IC50/EC50” value in [2] is reported as above 20 µM. In addition, the “Basal_Viability ATP DLD-1 IC50/EC50” value in the experiment with DLD-1 (basal) was above 20 µM. The “VEGF_ADSC\ECFC Angio CD31 TubeArea IC50/EC50” value in experiment [3] is given as above 10 µM. Besides, the “Basal_Viability ATP SNU-C1 IC50/EC50” value with SNU-C1 (basal) is recorded as above 20 µM. Moreover, in the experiment with SW480 (basal), the “Basal_Viability ATP SW480 IC50/EC50” value was above 20 µM.
